Patent publication US5164295A, “Method for identifying amyloid protein-extracellular matrix protein affinity altering compounds” (The Upjohn Company, priority 1991, dated 1992)

Key:
[1] = test system: HSPG binding to fibronectin; assay: Effect of test compounds on intact HSPG binding to immobilized fibronectin (ELISA); set-up: species or system bovine; conditions: for HSPG binding, % of control: fibronectin
Description: (§1) The assay comprised immobilizing AAP695 /s which was then exposed to free HSPG in the absence or presence of test compounds. Other aspects of the assay included exposing free HSPG to either immobilized AAP751 /s, or AAP770 /s, each in the absence or presence of test compounds. The assay was also performed with fibronectin as the immobilized protein in order to provide a positive control. In each case, a series of concentrations of HSPG and test compounds was used. Additionally, to determine whether or not the carbohydrate moiety of HSPG was involved in the binding to immobilized components, the carbohydrate moiety of HSPG was removed and assays were performed using the carbohydrate-free HSPG core protein. The test compounds used in experiments described here include heparin, dextran sulfate, chondroitin sulfate, dermatan sulfate, fibronectin, gelatin, bovine serum albumin (BSA), Ca^++ (CaCl2), Mg^++ (MgCl2), Mn^++ (MnCl2), Co^++ (Co(NO3)2), and Zn^++ (ZnCl2).
Fibronectin (from bovine plasma), heparin (grade II from porcine intestinal mucosa, average molecular weight=[…]), heparan sulfate, chondroitin sulfate, dextran sulfate, BSA, and alkaline phosphatase substrate were obtained from Sigma, St. Louis, Mo. Alkaline phosphatase conjugated goat anti-rabbit IgG was obtained from Boehringer-Manneheim, and heparitinase from ICN Biochemicals.
(§2) The assay used in studying the interaction between HSPG and protein ligands was an ELISA technique. Briefly, polystyrene micro-titer plates (Linbro, Flow Lab Inc.) were coated with a 100 μl solution, containing 1 μg/ml of the protein of interest (one of the three forms of AAP or fibronectin) in 20 mM NaHCO3 buffer pH 9.6. After incubation overnight at 4° C., the plates were rinsed with 0.15M NaCl, 20 mM Tris-Cl pH 7.5 (TBS). The plates were then incubated with 150 μl of 1% BSA in TBS for 2 hours at 37° C. to block the residual hydrophobic surface on the wells. After rinsing with TBS containing 0.05% (w/v) Tween 20 (TBS-Tween), 100 μl of various concentrations of HSPG in TBS-Tween were added. The plates were left overnight at 4° C., to permit maximum binding of HSPG to the coated proteins. The plates were then washed extensively and incubated for 2 hours at 37° C., with 100 μl of anti-HSPG diluted in TBS-Tween containing 0.1% BSA. The plates were washed again and incubated for another 2 hours with 100 μl of goat anti-rabbit-IgG conjugated with alkaline phosphatase (1:2000 dilution) in TBS-Tween containing BSA as above. Finally, after further washing, the bound antibodies were detected by adding an alkaline phosphatase substrate solution (100 μl) containing 2 mg/ml p-nitrophenyl phosphate, 0.1 mM ZnCl2, 1 mM MgCl2 and 100 mM glycine pH 10. The plates were left at room temperature for 15-120 minutes depending on the protein tested. The enzyme reaction was stopped by addition of 50 μl of 2M NaOH. The absorbance of the released p-nitrophenol was measured at 405 nm with a Titertek Multiscan/MCC 340 (Flow Lab. Ltd.). The amounts of HSPG bound were determined by the net OD405 after substracting the OD from the blank wells in which the HSPG incubation step was omitted. When the actual amounts of HSPG bound were to be calculated, a set of standards (0.05-50 ng/well) of HSPG in NaHCO3 buffer were pre-coated into wells on the same plates as the test proteins. The incubations proceeded as described above omitting the incubation of the HSPG solution with the HSPG standard coated wells. The actual amounts of HSPG bound to the test proteins were calculated from the OD405 standard curve produced by the HSPG standards using a Titersoft II E.J.A. software program (Flow Lab. Ltd.).
(§3) Heparin and dextran sulfate, respectively, were each used as test compounds to determine their effect on the HSPG binding to AAP forms and fibronectin. Various concentrations of heparin or dextran sulfate were added together with a constant amount of HSPG to wells coated with AAPs for fibronectin.

[2] = biological target: T1, HSPG binding to AAP695 /s (Homo sapiens, UniProt P05067); assay: Effect of test compounds on intact HSPG binding to immobilized AAP695 /s (ELISA); conditions: for HSPG binding, % of control: AAP695
T1 construct: maintained the entire extracellular portion of the AAP; made in house; host or cells: insect cells (recombinant baculovirus)
Description: as §1, §2, §3

[3] = biological target: T2, HSPG binding to AAP751 /s (Homo sapiens, UniProt P05067); assay: Effect of test compounds on intact HSPG binding to immobilized AAP751 /s (ELISA); conditions: for HSPG binding, % of control: AAP751
T2 construct: maintained the entire extracellular portion of the AAP; made in house; host or cells: insect cells (recombinant baculovirus)
Description: as §1, §2, §3

[4] = biological target: HSPG core protein binding to AAP695 /s; assay: Effect of heparin on HSPG core protein binding to immobilized AAP695 /s (ELISA); conditions: heparin 400 μg/ml
Description: The assay used in studying the interaction between HSPG and protein ligands was an ELISA technique. Briefly, polystyrene micro-titer plates (Linbro, Flow Lab Inc.) were coated with a 100 μl solution, containing 1 μg/ml of the protein of interest (one of the three forms of AAP or fibronectin) in 20 mM NaHCO3 buffer pH 9.6. After incubation overnight at 4° C., the plates were rinsed with 0.15M NaCl, 20 mM Tris-Cl pH 7.5 (TBS). The plates were then incubated with 150 μl of 1% BSA in TBS for 2 hours at 37° C. to block the residual hydrophobic surface on the wells. After rinsing with TBS containing 0.05% (w/v) Tween 20 (TBS-Tween), 100 μl of various concentrations of HSPG in TBS-Tween were added. […] Finally, after further washing, the bound antibodies were detected by adding an alkaline phosphatase substrate solution (100 μl) containing 2 mg/ml p-nitrophenyl phosphate, 0.1 mM ZnCl2, 1 mM MgCl2 and 100 mM glycine pH 10. […] The absorbance of the released p-nitrophenol was measured at 405 nm with a Titertek Multiscan/MCC 340 (Flow Lab. Ltd.). The amounts of HSPG bound were determined by the net OD405 after substracting the OD from the blank wells in which the HSPG incubation step was omitted. When the actual amounts of HSPG bound were to be calculated, a set of standards (0.05-50 ng/well) of HSPG in NaHCO3 buffer were pre-coated into wells on the same plates as the test proteins. […]

[5] = test compound 500 μg/ml (Table II)

Chain of HSPG binding to fibronectin (P07589 with tags, fused parts or gaps DEL1267-1357/DEL1723-1812 limits assumed): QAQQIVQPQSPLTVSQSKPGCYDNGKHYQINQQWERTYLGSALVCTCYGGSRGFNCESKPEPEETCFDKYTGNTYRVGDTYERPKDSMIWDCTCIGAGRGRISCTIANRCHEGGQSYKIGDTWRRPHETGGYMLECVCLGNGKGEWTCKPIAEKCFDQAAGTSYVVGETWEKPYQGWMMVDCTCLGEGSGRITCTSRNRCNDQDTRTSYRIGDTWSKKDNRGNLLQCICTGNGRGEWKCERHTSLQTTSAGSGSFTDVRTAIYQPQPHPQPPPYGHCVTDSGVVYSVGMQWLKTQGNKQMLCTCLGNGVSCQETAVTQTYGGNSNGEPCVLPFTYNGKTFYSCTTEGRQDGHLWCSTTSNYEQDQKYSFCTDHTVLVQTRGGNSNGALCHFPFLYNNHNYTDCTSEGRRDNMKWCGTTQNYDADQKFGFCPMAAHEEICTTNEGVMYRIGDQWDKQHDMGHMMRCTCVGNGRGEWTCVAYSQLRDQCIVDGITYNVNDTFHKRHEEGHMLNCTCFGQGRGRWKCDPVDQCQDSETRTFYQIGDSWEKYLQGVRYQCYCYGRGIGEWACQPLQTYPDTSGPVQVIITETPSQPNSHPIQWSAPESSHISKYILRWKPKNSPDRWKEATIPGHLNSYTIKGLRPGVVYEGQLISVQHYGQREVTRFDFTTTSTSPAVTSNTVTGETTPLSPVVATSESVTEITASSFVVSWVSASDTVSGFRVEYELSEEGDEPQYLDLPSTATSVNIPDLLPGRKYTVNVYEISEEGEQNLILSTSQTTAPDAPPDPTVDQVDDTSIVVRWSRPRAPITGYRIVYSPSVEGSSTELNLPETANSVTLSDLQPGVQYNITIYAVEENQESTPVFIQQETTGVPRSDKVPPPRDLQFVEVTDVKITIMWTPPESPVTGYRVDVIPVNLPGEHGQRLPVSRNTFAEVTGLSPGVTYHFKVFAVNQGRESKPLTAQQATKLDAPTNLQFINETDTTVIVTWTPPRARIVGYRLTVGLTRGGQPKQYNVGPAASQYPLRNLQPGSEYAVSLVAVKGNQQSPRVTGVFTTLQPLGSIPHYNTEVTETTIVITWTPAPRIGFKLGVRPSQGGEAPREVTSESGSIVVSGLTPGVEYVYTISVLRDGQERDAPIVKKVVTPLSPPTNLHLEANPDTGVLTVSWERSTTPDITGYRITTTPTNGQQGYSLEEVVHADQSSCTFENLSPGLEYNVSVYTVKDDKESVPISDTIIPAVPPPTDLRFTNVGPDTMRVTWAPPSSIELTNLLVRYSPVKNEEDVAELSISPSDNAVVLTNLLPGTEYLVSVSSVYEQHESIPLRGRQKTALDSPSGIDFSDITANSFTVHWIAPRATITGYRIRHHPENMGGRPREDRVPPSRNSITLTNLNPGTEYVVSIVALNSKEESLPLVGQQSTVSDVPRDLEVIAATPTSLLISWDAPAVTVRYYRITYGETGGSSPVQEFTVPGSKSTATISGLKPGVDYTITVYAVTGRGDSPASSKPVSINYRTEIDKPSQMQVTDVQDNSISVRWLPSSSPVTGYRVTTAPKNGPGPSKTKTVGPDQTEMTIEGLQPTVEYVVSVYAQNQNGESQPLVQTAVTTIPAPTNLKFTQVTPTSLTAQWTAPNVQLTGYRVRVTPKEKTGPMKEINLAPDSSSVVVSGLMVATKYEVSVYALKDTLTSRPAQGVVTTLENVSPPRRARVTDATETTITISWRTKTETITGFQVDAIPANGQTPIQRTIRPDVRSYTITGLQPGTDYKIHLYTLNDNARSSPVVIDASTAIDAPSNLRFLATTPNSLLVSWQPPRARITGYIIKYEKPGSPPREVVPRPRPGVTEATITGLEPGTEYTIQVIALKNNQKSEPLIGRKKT

heparin
mode of inhibition of HSPG binding to fibronectin [1]: noncompetitive | Activity: binding of intact HSPG, percentage ± SD of control ([1]; Fibronectin, addition 500 μg/ml, HSPG 2 μg/ml): 71.7 ± 4.9% | HSPG binding, % of control ([1]; test compound 31.2 μg/ml): 93% | HSPG binding, % of control ([1]; test compound 62.5 μg/ml): 91% | HSPG binding, % of control ([1]; test compound 125 μg/ml): 73% | HSPG binding, % of control ([1]; test compound 250 μg/ml): 85% | HSPG binding, % of control [1, 5]: 79% | HSPG binding, % of control ([1]; test compound 1000 μg/ml): 79% | HSPG binding, % of control ([1]; test compound 2000 μg/ml): 77% | HSPG binding, % of control ([1]; test compound 4000 μg/ml): 74% | mode of inhibition of HSPG binding to AAP695 /s [2]: probably competitive | Activity: binding of intact HSPG, percentage ± SD of control ([2]; AAP695 /S, addition 500 μg/ml, HSPG 2 μg/ml): 10.2 ± 5.2% | HSPG binding, % of control ([2]; test compound 31.2 μg/ml): 29% | HSPG binding, % of control ([2]; test compound 62.5 μg/ml): 26% | HSPG binding, % of control ([2]; test compound 125 μg/ml): 16% | HSPG binding, % of control ([2]; test compound 250 μg/ml): 10% | HSPG binding, % of control [2, 5]: 7% | HSPG binding, % of control ([2]; test compound 1000 μg/ml): 3% | HSPG binding, % of control ([2]; test compound 2000 μg/ml): 2% | HSPG binding, % of control ([2]; test compound 4000 μg/ml): 1% | Ki ([2]; calculated from Kdapp = Kdcon (1+[I]/Ki), heparin 400 μg/ml, AAP695 /s): ~5.5 µM | factor by which HSPG affinity for AAP-695/s is reduced ([2]; heparin 400 μg/ml): 5-10 | increase of Kd of intact HSPG for AAP695 /s in presence of heparin ([2]; heparin 400 μg/ml): approximately four-fold | inhibition of HSPG binding to AAP695 /s ([2]; test compound 62.5 μg/ml): 75% | mode of inhibition of HSPG binding to AAP751 /s [3]: noncompetitive | Activity: binding of intact HSPG, percentage ± SD of control ([3]; AAP751 /S, addition 500 μg/ml, HSPG 2 μg/ml): 69 ± 12% | HSPG binding, % of control ([3]; test compound 31.2 μg/ml): 89% | HSPG binding, % of control ([3]; test compound 62.5 μg/ml): 75% | HSPG binding, % of control ([3]; test compound 125 μg/ml): 84% | HSPG binding, % of control ([3]; test compound 250 μg/ml): 82% | HSPG binding, % of control [3, 5]: 54% | HSPG binding, % of control ([3]; test compound 1000 μg/ml): 60% | HSPG binding, % of control ([3]; test compound 2000 μg/ml): 53% | HSPG binding, % of control ([3]; test compound 4000 μg/ml): 58% | effect of heparin on Kd of HSPG when using AAP751 /s ([3]; heparin 400 μg/ml, intact HSPG or core protein): No such effect | Ki ([4]; calculated from Kdapp = Kdcon (1+[I]/Ki), AAP695 /s): ~1600 nM | increase of Kd of HSPG core protein for AAP695 /s in presence of heparin [4]: approximately ten-fold
